Source: publication PMC11249646, “Small-Molecule Disruptors of the Interaction between Calcium- and Integrin-Binding Protein 1 and Integrin αIIbβ3 as Novel Antiplatelet Agents” (ACS Pharmacology & Translational Science, 2024)
Where two headings read alike, the source gives them in different places. Where a SMILES comes first, the peptide text is derived from it. The star is where a group is joined. Cbz = O=C(OCc1ccccc1)*; CH2Cl = ClC*

Biological target: T1, CIB1 and αIIb interaction (CIB1-GST : F-αIIb peptide) (Homo sapiens, UniProt Q99828)
T1 construct: made in house; host or cells: BL-21 plus RIL cells (E. coli)
T1 sequence (Q99828 1-191): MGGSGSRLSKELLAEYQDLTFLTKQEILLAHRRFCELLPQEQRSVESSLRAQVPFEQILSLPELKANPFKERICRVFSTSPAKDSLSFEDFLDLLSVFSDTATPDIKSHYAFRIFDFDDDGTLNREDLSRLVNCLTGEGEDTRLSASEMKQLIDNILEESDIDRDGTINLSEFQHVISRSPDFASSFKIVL
Test: FP assay, 1536-well qHTS format (primary and confirmatory screen)
Type: binding
Details: for Efficacy (%): negative = inhibition; for Curve Class: negative sign = inhibitory curve; for IC50: read-out: IC50

[1] = qHTS primary screen of LOPAC/NPACT libraries
[2] = qHTS primary screen hits, Table S2
[3] = qHTS primary screen hits, Table S2, several classes where COUNT > 1

Efficacy (%) [1] [%] | Curve Class [1] | IC50 [1] [µM] | Curve Class [2] | SMILES | Efficacy (%) [2] [%] | Curve Class [3] | IC50 [2] [µM] | Curve Class (qHTS primary screen hits, Table S2, NPACT library)
-26 | -2.4 | 22.4 |  | Cc1sc2c(c1C)C(c1ccc(Cl)cc1)=N[C@@H](CC(=O)Nc1ccc(OCCOCCOCCOCCNc3cccc4c3C(=O)N(C3CCC(=O)NC3=O)C4=O)cc1)c1nnc(C)n1-2 (stereo partly drawn) [NCGC00483927-01] |  |  |  | 
-26 | -2.4 | 56.2 |  | C=CC(=O)Nc1ccc(CN2C(=O)N(c3cc(OC)cc(OC)c3)Cc3cnc(Nc4ccc(N5CCN(C)CC5)cc4)nc32)cc1 [NCGC00484066-01] |  |  |  | 
-21 | -2.4 | 56.2 |  | CN1CCN(c2ccc(C(=O)Nc3n[nH]c4ccc(Cc5cc(F)cc(F)c5)cc34)c(NC3CCOCC3)c2)CC1 [NCGC00484067-01] |  |  |  | 
-26 | -2.4 | 70.8 |  | O=C([C@@H]1CCCN(c2ccc3[nH]c(C4(n5cc(Cl)cn5)CC4)nc3n2)C1)N1CCCC1 [NCGC00485074-01] |  |  |  | 
-29 | -2.4 | 44.7 |  | CCOc1ccc(Cc2nc(-c3c(C)nc4ccccn34)cs2)cc1 [NCGC00485083-01] |  |  |  | 
-24 | -1.4 | 10 |  | C=C1C(=O)O[C@@H]2[C@H]3C(C)=CC(=O)C3=C(C)CC[C@@H]12 [NCGC00485131-01] |  |  |  | 
-24 | -2.4 | 22.4 |  | CC(C)C[C@H](NC(=O)CNC(=O)OCc1ccccc1)C(=O)N[C@@H](Cc1ccccc1)C(=O)CCl [NCGC00485375-01] (Cbz-Gly-Leu-Phe-CH2Cl) |  |  |  | 
-32 | -2.4 | 50.1 |  | CN(C)c1ccc(NC(=O)NS(=O)(=O)c2ccc(Cl)cc2)cc1 [NCGC00485899-01] |  |  |  | 

Continued, compound first:

SMILES | Efficacy (%) [1] [%] | Curve Class [1] | IC50 [1] [µM] | Curve Class [2] | Efficacy (%) [2] [%] | Curve Class [3] | IC50 [2] [µM] | Curve Class (qHTS primary screen hits, Table S2, NPACT library)
COc1ccnc(C[S+]([O-])c2nc3cc(OC(F)F)ccc3[nH]2)c1OC (stereo not drawn) [NCGC00388526-02] | -26 | -2.4 | 56.2 |  |  |  |  | 
NS(=O)(=O)c1ccc(Cc2c(-c3ccc(F)c(-c4cccs4)c3)nn(-c3nc(C(=O)O)cs3)c2CC2CC2)cc1F.O=C(O)C(F)(F)F [NCGC00390071-01] |  |  |  |  | -33 | -2.2 | 50.1 | 
COc1cc(Nc2cc(C#N)nc3cc(OCCCN4CCN(C)CC4)c(OC)cc23)c(Cl)cc1Cl [NCGC00390366-01] | -33 | -2.4 | 56.2 |  |  |  |  | 
O=C([O-])CCNc1cc(N2CCc3ccccc3CC2)nc(-c2ccccn2)n1.[Na+] [NCGC00390406-01] |  |  |  | -2.4 | -28 |  | 26.3 | 
Nc1nccn2c(C3CCC(C(=O)O)CC3)nc(-c3cc4cccc(Cl)c4[nH]3)c12 (stereo not drawn) [NCGC00390408-01] | -33 | -2.4 | 50.1 |  |  |  |  | 
COc1cc(N2CCC(N3CCN(C)CC3)CC2)ccc1Nc1ncc(Cl)c(-c2c[nH]c3ccccc23)n1 [NCGC00390583-01] | -31 | -2.4 | 50.1 |  |  |  |  | 
COc1cc(Nc2ccc([N+](=O)[O-])cc2C(=O)O)cc2ccccc12 [NCGC00402240-03] | -27 | -2.4 | 50.1 |  |  |  |  | 
CCCc1n[nH]c2c1C(c1cc(Cl)cc(Cl)c1O)C(C#N)=C(N)O2 (stereo not drawn) [NCGC00402340-02] | -29 | -2.4 | 44.7 |  |  |  |  | 
COCc1ccc(-c2nn(Cc3ccccc3)c3ccccc23)o1 [NCGC00479273-01] |  |  |  |  | -37 | -2.4 | 56.2 | 
Oc1ccc2c3c1O[C@H]1c4[nH]c5c(N=C=S)cccc5c4C[C@@]4(O)[C@@H](C2)N(CC2CC2)CC[C@]314 [NCGC00485321-01] | -30 | -2.4 | 100 |  |  |  |  | 
CC(=O)N[C@@H](CC(=O)O)C(=O)N[C@@H](CCC(=O)O)C(=O)N[C@H](C(=O)N[C@@H](CC(=O)O)C(=O)Nc1ccc2c(C)cc(=O)oc2c1)C(C)C [NCGC00485360-01] |  |  |  |  | -37 |  | 39.8 | -2.4
